# Measurements: patent publication US5004565A, “Method and compositions providing enhanced chemiluminescence from 1,2-dioxetanes” (priority 1988, dated 1991)
# Structures can show the parent of a compound that is named as a salt.
# Assays:
# [1] = assay type: physicochemical; conditions: for t1/2 at 25° C.: table; for t1/2 at 25° C. / k at 25° C.: thermal decomposition in xylene
# Method: Rates for thermal decomposition of the stable dioxetanes were monitored by the decay of chemiluminescence of aerated solutions. A cylindrical Pyrex vial equipped with magnetic stir bar was filled with 3-4 mL of the reaction solvent, sealed with a Teflon-lined screw cap and placed in the thermostatted sample block of the chemiluminescence-measuring luminometer. Temperature control was provided by an external circulating water bath. Appropriate values for the instrument gain and optical slit size were selected. […]. The vial was sealed with a Teflon-lined screw cap to prevent evaporation when high temperatures were used. Measurement of the signal was begun by opening the shutter. The chemiluminescent decay was generally recorded for at least three half-lives. Calculation of the first-order rate constant (k) from the In (Intensity) vs. time data was performed by a computer program utilizing a standard least-squares treatment. The correlation coefficient (r) was typically at least 0.999 and k varied less than 5% between replicate samples.
# Activation parameters for decomposition of the dioxetanes were calculated from plots of In k vs. 1/T (Arrhenius eq.) or In k/t vs. 1/T (Eyring eq.) by a standard least-squares linear regression analysis.
# [2] = system: alkaline phosphatase from bovine intestinal mucosa; assay: Triggering of xanthenone phosphate dioxetane with alkaline phosphatase from bovine intestinal mucosa; assay type: biochemical; conditions: 4.2×10^-6 M dioxetane, 1.8 μg/mL protein, pH 10.3, 37° C.
# Method: Triggering experiments were conducted using alkaline phosphatase from bovine intestinal mucosa [suspension of 5.3 mg of protein (1100 units/mg protein) per mL in 3.2 M (NH4)2 SO4 ] and the phosphate-protected dioxetane at pH 10.3 in 0.75 M 2-amino-2-methyl- 1-propanol buffer. […]. The rate of decay of the emission is a function of enzyme concentration while the total light emission is independent of the enzyme concentration because of turnover of the enzyme.
# [3] = system: firefly luciferase; conditions: firefly luciferase system; cited from earlier work
# [4] = system: urease; assay: Triggering of 2a with urease in the presence of fluorescent micelles; assay type: biochemical; conditions: 10 μL of 3×10^-3 M 2a, CTAB, fluorescein surfactant 3, urea
# Method: 5. Enzymatic Triggering of Hydroxy-Substituted Dioxetane 2a with Urease in the Presence of Fluorescent Micelles. A solution was prepared using 160 mg of CTAB and 12.4 mg of fluorescein surfactant 3 in 200 mL of distilled water. A urea solution was made by dissolving 200 mg of urea in 100 mL of distilled water with EDTA added to give a final concentration of 0.4 mM. The substrate solution for the urease experiments was obtained by mixing 10mL of each stock solution.
# Experiments were carried out with urease (Sigma) by incubation at room temperature for periods of 0.5 to 2 hours. […] The intensity of the luminescence provided a measure of the concentration of urease.
# [5] = Base-triggered chemiluminescence in DMSO or water; conditions: 10^-4 M, DMSO, excess tetra-n-butylammonium hydroxide
# [6] = system: Alkaline Phosphatase from Human Blood Serum; assay: Triggering of 2c with alkaline phosphatase from human blood serum; assay type: biochemical; conditions: 10^-5 M 2c, 100 μL serum, pH 10.3, 37° C.
# Method: 1. Triggering the Chemiluminescence of 2c with Alkaline Phosphatase from Human Blood Serum. A stock solution of dioxetane 2c was prepared in dioxane/water (1:1 v/v) by photooxygenation of 1c. A sample of fresh blood was drawn from a healthy donor and the red blood cells removed by centrifugation to provide serum for the experiments. Treatment of 3 mL of a 10^-5 M solution of 2c in 0.75 M 2-amino-2-methyl-1-propanol (221) buffer (pH 10.3) at 37° C. with 100 μL of serum led to the typical intensity vs. time profile shown in FIG. 3 where the serum is injected at time zero. Under these conditions the light intensity reaches a constant level of approximately 2.3×10^4 counts/sec. The background luminescence signal from non-enzymatic hydrolysis of 2c is less than 0.05% of the enzyme-generated value.
# [7] = system: alkaline phosphatase from bovine intestinal mucosa; assay: Triggering of 2c with alkaline phosphatase from bovine intestinal mucosa; assay type: biochemical
# Source text: The chemiluminescence quantum yield (.PHI.CL) for the decomposition of dioxetanes is defined as the ratio of einsteins of chemiluminescence emitted to moles of dioxetane decomposed. Sufficient energy is released during the reaction from the reaction enthalpy (ΔHR) plus the Arrhenius activation energy (Ea) to populate the singlet excited state of one of the carbonyl cleavage products. Therefore, the maximum quantum yield is 1.0. Another parameter of interest is the chemiexcitation quantum yield (.PHI.CE) which is defined as the ratio of excited states formed to dioxetane decomposed.
# The same procedure as those employed in the measurement of the decay kinetics was used for the determination of chemiluminescence quantum yields with the following modifications. An accurately measured aliquot of a dioxetane stock solution of known concentration was added to 3 mL of the pre-thermostatted organic solvent or aqueous buffer. The reaction was then triggered by adding the appropriate chemical reagent or enzyme. […]
# Enzymatic triggering experiments such as those described above were also carried out in Immumlon™ microtitre wells from Dynatech, Inc. made of transparent polystyrene. […] The chemiluminescence was detected at the bottom of the well using a fiber optic connected to the photon-counting luminometer described previously. […]
smiles,measurement,setting,value
COC1(c2cccc(O[Si](C)(C)C(C)(C)C)c2)OOC12C1CC3CC(C1)CC2C3 (stereo not drawn),half-life at 25° C.,[1]; General Description dioxetanes,3.8 years
same,decomposition on standing,"[1]; o-xylene, laboratory bench, several months",no detectable decomposition
O=P(O)(O)Oc1ccc2c(c1)Oc1ccccc1C21OOC12C1CC3CC(C1)CC2C3 (stereo not drawn),duration of chemiluminescence decay,[2],3 min
"CCCCCCCCCCCCCCCC[N+](C)(C)C.[Br-] [CTAB, cetyltrimethylammonium bromide]",inhibition of the catalytic activity of the luciferase,[3],complete inhibition
"COC1(c2cccc(O)c2)OOC12C1CC3CC(C1)CC2C3 (stereo not drawn) [dioxetane 2a, 4-(3-Hydroxyphenyl)-4-methoxyspiro[1,2-dioxetane-3,2'-adamantane]]",chemiluminescence after incubation with urease,[4],produced chemiluminescence
same,duration of chemiluminescence decay,[5],several minutes
same,t1/2 at 25° C.,[1],4.1 yrs
same,k at 25° C.,[1],5.38e-09 s⁻¹
COC1(c2cccc(OC(C)=O)c2)OOC12C1CC3CC(C1)CC2C3 (stereo not drawn) [dioxetane 2b],t1/2 at 25° C.,[1],13 yrs
same,k at 25° C.,[1],1.73e-09 s⁻¹
"COC1(c2cccc(OP(=O)(O)O)c2)OOC12C1CC3CC(C1)CC2C3 (stereo not drawn) [dioxetane 2c, 4-Methoxy-4-(3-phosphatephenyl)spiro[1,2-dioxetane-3,2'-adamantane], disodium salt]",light intensity at plateau,[6],approximately 2.3×10^4 counts/sec
same,detection of alkaline phosphatase,"[7]; 2c, CTAB and 3 in 200 μL 221 buffer, assuming enzyme purity of 10%",less than 0.2 attomoles
same,period of chemiluminescence,"[7]; with CTAB and 3, 12 pg/mL protein",45 min
same,t1/2 at 25° C.,[1],19 yrs
same,k at 25° C.,[1],1.19e-09 s⁻¹
